From patent US10336762B2 (priority 2017, dated 2019)
Like-named read-outs stand apart in the source and are kept apart here.

Experiments:
TNFα = assay: cells; assay type: cell-based, human; details: Homo sapiens, Monocyte, LPS-stimulated human monocytes, read-out: EC50 TNF
IRAK4 enzyme = IRAK4 enzyme (Homo sapiens (Human), UniProt Q9NWZ3); assay: biochemical; assay type: biochemical; details: IRAK4 enzyme, 500 μM ATP
Sequence of IRAK4 enzyme (Q9NWZ3 whole entry): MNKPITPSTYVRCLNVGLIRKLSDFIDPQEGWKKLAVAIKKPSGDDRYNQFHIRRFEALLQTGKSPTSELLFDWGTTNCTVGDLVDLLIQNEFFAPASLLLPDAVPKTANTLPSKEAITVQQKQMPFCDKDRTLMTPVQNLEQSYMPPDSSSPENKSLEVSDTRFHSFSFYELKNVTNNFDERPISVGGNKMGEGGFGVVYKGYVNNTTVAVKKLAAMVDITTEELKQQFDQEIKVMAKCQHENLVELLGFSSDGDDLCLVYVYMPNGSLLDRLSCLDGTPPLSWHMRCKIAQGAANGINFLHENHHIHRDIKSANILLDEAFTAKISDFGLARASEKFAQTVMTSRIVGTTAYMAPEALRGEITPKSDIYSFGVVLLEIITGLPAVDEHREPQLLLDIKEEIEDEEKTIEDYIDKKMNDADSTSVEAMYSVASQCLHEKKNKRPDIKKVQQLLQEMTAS

Structure (SMILES) | EC50 (TNFα; TNFα by TR-FRET) [nM] | IC50 (IRAK4 enzyme; TR-FRET) [nM] | EC50 (TNFα; TNFα content) [nM] | IC50 (IRAK4 enzyme; TR-FRET (HTRF)) [nM]
COC(=O)NC[C@H]1C[C@H](Nc2cc(-c3ccc4cccnn34)ncc2C(=O)NC[C@@H](F)C(C)(C)O)C1 [Example 818, methyl (((1R,3r)-3-((5-(((R)-2-fluoro-3-hydroxy-3-methylbutyl)carbamoyl)-2-(pyrrolo[1,2-b]pyridazin-7-yl)pyridin-4-yl)amino)cyclo-butyl)methyl)carbamate] | 224 | 4 |  | 
COC(=O)NC1CCC(NC(=O)c2cnc(-c3ccc4cc(C#N)cnn34)cc2N[C@H]2CCCC(O)C2)CC1 (stereo partly drawn) [Example 387, methyl ((1S,4r)-4-(6-(3-cyanopyrrolo[1,2-b]pyridazin-7-yl)-4-(((1S,3R)-3-hydroxy-cyclohexyl)amino)nicotinamido)cyclohexyl)carbamate] |  | 2 | 112 | 
CC(C)(O)[C@H](F)CNC(=O)c1cnc(-c2ccc3cc(C#N)cnn23)cc1NC12CC(C#N)(C1)C2 [Example 378, (R)-4-((3-cyano-bicyclo[1.1.1]pentan-1-yl)amino)-6-(3-cyano-pyrrolo[1,2-b]pyridazin-7-yl)-N-(2-fluoro-3-hydroxy-3-methylbutyl) nicotinamide] |  | < 1 | 38 | 
CC(C)(O)[C@H](F)CNC(=O)c1cnc(-c2ccc3cc(C#N)cnn23)cc1Nc1ccc(CNCC(F)(F)F)cc1 [Example 198, (R)-6-(3-cyanopyrrolo[1,2-b]pyridazin-7-yl)-N-(2-fluoro-3-hydroxy-3-methylbutyl)-4-((4-(((2,2,2-trifluoroethyl)amino)methyl)phenyl)amino)nicotinamide] |  | < 1 | 16 | 
N#CCNC(=O)c1cnc(-c2ccc3cc(C#N)cnn23)cc1N[C@H]1CCC[C@@H](O)C1 [Example 459, N-(cyanomethyl)-6-(3-cyanopyrrolo[1,2-b]pyridazin-7-yl)-4-(((1S,3R)-3-hydroxycyclohexyl)amino) nicotinamide] |  |  | 125 | 1
CC(C)(O)[C@H](F)CNC(=O)c1cnc(-c2ccc3cc(C#N)cnn23)cc1Nc1ccc(CN2CC(F)(F)C2)cc1 [Example 205, (R)-6-(3-cyanopyrrolo[1,2-b]pyridazin-7-yl)-4-((4-((3,3-difluoroazetidin-1-yl)methyl)phenyl)amino)-N-(2-fluoro-3-hydroxy-3-methylbutyl) nicotinamide] |  | 1 | 115 | 
N#Cc1cnn2c(-c3cc(NC45CCC(O)(CC4)CC5)c(C(=O)NCC4COC4)cn3)ccc2c1 [Example 617, 6-(3-cyanopyrrolo[1,2-b]pyridazin-7-yl)-4-((4-hydroxybicyclo[2.2.2]octan-1-yl)amino)-N-(oxetan-3-ylmethyl) nicotinamide] |  |  | 144 | 2
CC(C)(C)OC(=O)NC12CCC(Nc3cc(-c4ccc5cc(C#N)cnn45)ncc3C(=O)NC[C@@H](F)C(C)(C)O)(CC1)CC2 [Example 304, (R)-tert-butyl (4-((2-(3-cyanopyrrolo[1,2-b]pyridazin-7-yl)-5-((2-fluoro-3-hydroxy-3-methylbutyl)carbamoyl)pyridin-4yl)amino)bicyclo[2.2.2]octan-1-yl)carbamate] |  | 4 | 677 | 
CC(C)(O)[C@H](F)CNC(=O)c1cnc(-c2ccc3cc(C#N)cnn23)cc1Nc1ccc(-c2ccon2)cc1 [Example 773, (R)-6-(3-cyanopyrrolo[1,2-b]pyridazin-7-yl)-N-(2-fluoro-3-hydroxy-3-methylbutyl)-4-((4-(isoxazol-3-yl)phenyl)amino) nicotinamide] |  |  | 43 | 1
CC1(F)CC(Nc2cc(-c3ccc4cc(C#N)cnn34)ncc2C(=O)NC[C@@H](F)C(C)(C)O)C1 (stereo partly drawn) [Example 136, (R)-6-(3-cyanopyrrolo[1,2-b]pyridazin-7-yl)-N-(2-fluoro-3-hydroxy-3-methylbutyl)-4-((3-fluoro-3-methylcyclobutyl)amino) nicotinamide] |  | 2 | 163 | 
CN1CCN(C(=O)CCNC(=O)c2cnc(-c3ccc4cc(C#N)cnn34)cc2NC23CCC(O)(CC2)CC3)CC1 [Example 806, 6-(3-cyanopyrrolo[1,2-b]pyridazin-7-yl)-4-((4-hydroxybicyclo[2.2.2]octan-1-yl)amino)-N-(3-(4-methylpiperazin-1-yl)-3-oxopropyl)nicotinamide] | 349 | 3 |  | 
CN1CC2C[C@@H](Nc3cc(-c4ccc5cc(C#N)cnn45)ncc3C(=O)NC[C@@H](F)C(C)(C)O)C[C@@H]2C1 (stereo partly drawn) [Example 245, 6-(3-cyanopyrrolo[1,2-b]pyridazin-7-yl)-N-((R)-2-fluoro-3-hydroxy-3-methylbutyl)-4-(((3aR,5s,6aS)-2-methyloctahydrocyclopenta[c]pyrrol-5-yl)amino)nicotinamide] |  | 2 | 92 | 
CC(C)Nc1cc(-c2ccc3cc(C#N)cnn23)ncc1C(=O)NC1CCS(=O)(=O)C1 (centres unmarked) [Example 123, 6-(3-cyanopyrrolo[1,2-b]pyridazin-7-yl)-N-(1,1-dioxidotetrahydrothiophen-3-yl)-4-(isopropylamino) nicotinamide] |  | 6 | 421 | 
N#Cc1cnn2c(-c3cc(NC45CCC(O)(CC4)CC5)c(C(=O)NCC4(CO)COC4)cn3)ccc2c1 [Example 711, 6-(3-cyanopyrrolo[1,2-b]pyridazin-7-yl)-4-((4-hydroxybicyclo[2.2.2]octan-1-yl)amino)-N-((3-(hydroxymethyl)oxetan-3-yl)methyl)nicotinamide] |  |  | 231 | 2
CC(C)Nc1cc(-c2ccc3cc(C#N)cnn23)ncc1C(=O)NC1CCC(NC(=O)C(C)(C)O)CC1 (centres unmarked) [Example 135, 6-(3-cyanopyrrolo[1,2-b]pyridazin-7-yl)-N-((1r,4r)-4-(2-hydroxy-2-methylpropanamido)cyclo-hexyl)-4-(isopropylamino) nicotinamide] |  | 2 | 130 | 
COC(=O)N[C@H]1CC[C@H](Nc2cc(-c3ccc4cc(C#N)cnn34)ncc2C(=O)NC[C@@H](F)C(C)(C)O)C1 [Example 750, methyl ((1S,3S)-3-((2-(3-cyanopyrrolo[1,2-b]pyridazin-7-yl)-5-(((R)-2-fluoro-3-hydroxy-3-methylbutyl)carbamoyl)pyridin-4-yl)amino)cyclopentyl) carbamate] |  |  | 198 | 1
CC(C)(O)[C@H](F)CNC(=O)c1cnc(-c2ccc3cc(C#N)cnn23)cc1NC1CCC2(CC1)COC2 [Example 781, (R)-4-(2-oxaspiro[3.5]nonan-7-ylamino)-6-(3-cyanopyrrolo[1,2-b]pyridazin-7-yl)-N-(2-fluoro-3-hydroxy-3-methyl-butyl)nicotinamide] |  |  | 90 | < 1
CC(C)(O)[C@H](F)CNC(=O)c1cnc(-c2ccc3cc(C#N)cnn23)cc1N[C@H]1CCCN(S(C)(=O)=O)C1 [Example 257, 6-(3-cyanopyrrolo[1,2-b]pyridazin-7-yl)-N-((R)-2-fluoro-3-hydroxy-3-methylbutyl)-4-(((S)-1-(methylsulfonyl)piperidin-3-yl)amino)nicotinamide] |  | 1 | 129 | 
Cc1ncoc1C12CCC(Nc3cc(-c4ccc5cc(C#N)cnn45)ncc3C(=O)NC[C@@H](F)C(C)(C)O)(CC1)CO2 [Example 634, (R)-6-(3-cyanopyrrolo[1,2-b]pyridazin-7-yl)-N-(2-fluoro-3-hydroxy-3-methylbutyl)-4-((1-(4-methyloxazol-5-yl)-2-oxabicyclo[2.2.2]octan-4-yl)amino)nicotinamide] |  |  | 7 | < 1
